The values that follow come from patent publication US4788304A, “Phospholipase A2 inhibitors” (American Home Products Corporation, priority 1987, dated 1988).

In one assay the target is T1, human platelet PLA2 (Homo sapiens, UniProt P14555).
T1 construct: The PLA2 enriched supernatant fluid is removed and the amount of protein is determined by the Lowry method; from tissue; host or cells: expired human platelets from the blood bank (acid extract, not purified)
T1 sequence (P14555 21-144): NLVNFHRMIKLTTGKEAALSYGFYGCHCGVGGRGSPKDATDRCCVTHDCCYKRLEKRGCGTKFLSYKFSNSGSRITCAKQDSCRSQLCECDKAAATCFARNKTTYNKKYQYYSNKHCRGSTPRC
The experiment in a line: Inhibition of cell free human platelet PLA2 (hydrolysis of [3H]-AA labelled E. coli phospholipids). The following applies: for inhibition at 50 µM: pH 7.4, 37° C. It counts as biochemical. The method, then:
The ability of the compounds in the scope of the invention to inhibit the activity of cell free human platelet PLA2 enzyme is measured in the following in vitro assay.
E. coli, cultured to exponential growth, are sedimented for 15 minutes at 10,000 g and resuspended in sterile isotonic saline (1-3 ml). 10-25 μCi uniformly labeled [^3 H]-arachidonic acid (AA) is added to a sterile flask, evaporated by N2 and resolubilized with 0.3 ml 20% fatty acid-free bovine serum albumen (BSA). 75-100 ml of nutrient broth and 1 ml E. coli are then added to each flask and incubated for 2-3 hours at 37° C. [^3 H]-AA labelled E. coli are then sedimented, suspended in saline and added to fresh nutrient broth and incubated for 1.5 hours at 37° C. to complete [^3 H]-AA incorporation into the phospholipids. After overnight refrigeration of cultures, E. coli are again sedimented, suspended in saline and autoclaved for 15 minutes at 120° C. E. coli cultures are washed twice with saline (first wash contains 1 % BSA) and resuspended in saline. Non-labelled E. coli cultures are also prepared in the same manner. Cell number is determined by measuring the optical density at […] (3×10 cell/ml=1 O.D.). The amount of radioactivity associated with cells is determined by counting a defined volume of cell suspension. The specific activity is subsequently adjusted by adding non-labelled E. coli to yield 2-4×10 cpm per 1×10^10 E. coli.
Expired human platelets from the blood bank are centrifuged for 15 minutes at 200 g to obtain a platelet rich fraction and to remove the red blood cells. Platelets are sedimented for 15 minutes at 2500 g and the plasma is removed before adding cold 0.18N H2 SO4 (4 ml/unit). Platelets are homogenized, incubated for 1 hour at 4° C., homogenized again and centrifuged for 15 minutes at 10,000 g. The PLA2 enriched supernatant fluid is removed and the amount of protein is determined by the Lowry method. The preparation is divided into various portions and stored at -20° C.
The assay measures the hydrolysis of E. coli membrane phospholipids and the release of free [^3 H]-AA from the C-2 position of phospholipids by human platelet PLA2. To ice cold 15×100 mm test tubes, the following additions are made; 2.5×10^8 E. coli (equivalent to 5 nmol phospholipid), 5 mM Ca++, 100 mM Tris buffer (pH=7.4), 100 μg platelet extract (or an amount to produce 20-30% hydrolysis), drug or vehicle. Incubation are carried out at 37° C. in a shaking water bath for 30 minutes. The reaction is terminated by the addition of 2 volumes of tetrahydrofuran (THF) and the mixture is vortexed. Hydrolyzed [^3 H]-AA is separated from unhydrolyzed phospholipid by solid phase extraction using Bond elute NH2 columns (Analytichem Intermat.). Columns are conditioned with 0.5 ml THF followed by 0.5 ml THF:H2 O (2.0:0.1 ml v/v). Samples are loaded onto columns and hydrolyzed [^3 H]-AA is eluted with 1 ml THF:glacial acetic acid (98.0:2.0 ml v/v). The elutant is transferred to vials, 10 ml Optifluor is added and the radioactivity is determined by liquid scintillation counting.
Treatments are corrected for non-enzymatic hydrolysis by subtracting the dpms in treatments containing no enzyme. Mean [^3 H]-AA dpm is determined and a percent inhibition relative to vehicle treated samples is calculated.
The percent hydrolysis is calculated by the following equation: [formula]

The test system of assay [1] is synthesis of the arachidonic acid cyclooxygenase oxidation product TxB2. The experiment in a line: Inhibition of TxB2 synthesis (cyclooxygenase product) by rat polymorphonuclear leukocytes. It counts as cell-based, rat (female Wistar). The following applies: Leukocyte, A23187-stimulated rat PMN.
The subject of assay [2] is synthesis of LTB4 by rat glycogen-elicited polymorphonuclear leukocytes (PMN). Kind of assay: Inhibition of LTB4 synthesis by rat glycogen-elicited polymorphonuclear leukocytes (PMN). It is filed as cell-based, rat (female Wistar). The settings on record: Leukocyte, A23187-stimulated rat PMN.
The test system of assay [3] is Naja mocambique mocambique PLA2. Kind of assay: Vascular cutaneous permeability induced by snake venom PLA2 in guinea pigs. It counts as in vivo, guinea pig (Hartley). The settings on record: for % Inhibition (PLA2-induced vascular permeability): standard drug.
Assay [4] relates to rat carrageenan paw edema. Kind of assay: Rat carrageenan paw edema. It is filed as in vivo, rat (Sprague-Dawley). The settings on record: 3 h; for % Inhibition of paw edema: at 50 mg/kg (peroral), 1 h prior to carrageenan. As for the experimental part: The compounds in the scope of the invention are further tested in the rat carrageenan paw edema to determine their ability to inhibit the acute inflammatory response.
[…] male Sprague-Dawley rats, in groups of 6 animals are injected subcutaneously in the right paw with 0.1 ml of 1% carrageenan at zero time. Mercury plethysmographic readings (ml) of the paw are made at zero time and 3 hours later. Test compounds are suspended or dissolved in 0.5% methylcellulose and given perorally 1 hour prior to carrageenan administration.
The increase in paw volume (edema in ml.) produced by the carrageenan is measured. Paw edema is calculated (3 hour volume minus zero time volume), and percent inhibition of edema is determined. Unpaired Student's t-test is used to determine statistical significance.

Assay [5] concerns AA-induced mouse ear edema. Kind of assay: Arachidonic acid (AA)-induced murine ear edema test. It is filed as in vivo, mouse (Swiss Webster). The following applies: 1 mg/ear, 30 min prior to AA, measured 1 h after AA.
Assay [6] has as its system TPA-induced mouse ear edema. The experiment in a line: TPA-induced murine ear edema test. The following applies: 1 mg/ear, 30 min after TPA, measured 4 h after TPA. It counts as in vivo, mouse (Swiss Webster).
Assay [7] has as its system oxazolone-induced contact hypersensitivity in the mouse ear. The experiment in a line: Oxazolone-induced contact hypersensitivity in the mouse ear. The following applies: dosed at 1 mg/ear. It counts as in vivo, mouse (Swiss Webster). As for the experimental part: The assay of this Example measures the ability of the compounds in the scope of the invention to inhibit oxazolone-induced contact hypersensitivity in the mouse ear.
Female, Swiss Webster mice (8 weeks old) are placed into groups of 6 and the abdominal area of each is shaved. The mice are sensitized to oxazolone (4-ethoxymethylene-2-phenyl-oxazol-5-one) by applying 100 μl of a 2% solution in 95% alcohol directly onto the shaved abdomen using an automatic pipette and rubbing the residual oxazolone into the skin with a round wooden stick. Six days after sensitization each mouse is challenged by applying 20 μl of a 2% oxazolone solution in 95% alcohol to the right ear (10 μl on each side) and 20 μl of alcohol alone to the left ear. Compounds for topical applications are prepared in acetone and administered to the right ear 30 min after challenge or 30 min prior to and 5 h after challenge; acetone (vehicle) is applied to the left ear. Compounds for oral administration are suspended in 0.5 ml of 0.5% methyl cellulose and given ten min prior to challenge. Ear thickness of both ears is measured in mm×10^-2 at 24 and 48 h after challenge using an Oditest caliper. Edema is calculated by subtracting the left ear thickness from the right ear thickness. Drug effects are determined by calculating the percentage change from control for each time period.

The mark [8] stands for this setting: cell free human platelet PLA2, pH 7.4, 37° C., 30 min, read-out: IC50 (PLA2).

pIC50: −log10 of the molar value. Read-outs that look alike come from different tables or passages of the source.

For the compound `COC(=O)C1(C(F)CCCCOc2ccc(Cl)cc2)CO1` (single isomer, unassigned) [2 (isomer A), 2-[5-(4-Chlorophenoxy)-1-fluoropentyl]-2-oxiranecarboxylic acid methyl ester (isomer A)], on human platelet PLA2 (30 min), the inhibition – broadly, the share of the control response that was lost under treatment – at 50 µM amounted to 83.8%. Moreover, the pIC50 (in general, the negative decadic logarithm of the IC50, by convention in mol/L) at human platelet PLA2 (setting [8]) was 4.86.

`COC(=O)C1(C(F)CCCCCOc2ccc(Cl)cc2)CO1` (single isomer, unassigned) [3 (isomer A), 2-[6-(4-Chlorophenoxy)-1-fluorohexyl]-2-oxiranecarboxylic acid methyl ester (isomer A)]: testing at 50 µM against human platelet PLA2 (30 min) gave an inhibition of 84.6%. Moreover, the pIC50 on human platelet PLA2 (setting [8]) was 4.72.

For the compound `COC(=O)C1(C(F)CCCCc2ccccc2)CO1` (single isomer, unassigned) [Example 1 (isomer A), 2-(1-Fluoro-5-phenylpentyl)-2-oxiranecarboxylic acid methyl ester (isomer A)], the inhibition at 50 µM at human platelet PLA2 (30 min) was 88%. Further, the pIC50 at human platelet PLA2 (setting [8]) is 5.59.

`COC(=O)C1(C(F)CCCCCOc2ccc(Cl)cc2)CO1` (single isomer, unassigned) [Example 3, 2-[6-(4-Chlorophenoxy)-1-fluorohexyl]-2-oxiranecarboxylic acid methyl ester]: the inhibition at 10 µM was 34% in assay [1] and 17% in assay [2].

As to `COC(=O)C1(C(F)=CCCCOc2ccc(Cl)cc2)CO1` (centres unmarked) [6 (fluoro-vinyl compound), 2-[5-(4-Chlorophenoxy)-1-fluoro-1-pentenyl]-2-oxiranecarboxylic acid methyl ester], the “% Inhibition, iv at 100 mg/kg (PLA2-induced vascular permeability)” value in assay [3] is on record as 32%. Also, the inhibition at 10 µM in assay [1] was found to be 33%; in assay [2], 15%. In addition, the “% Inhibition of paw edema” value in assay [4] is given as 26%. This compound yielded an inhibition at 50 µM against human platelet PLA2 (30 min) of 99.5%. Further, the pIC50 at human platelet PLA2 (setting [8]) is 5.52.

`COC(=O)C1(C(F)(F)CCCCOc2ccc(Cl)cc2)CO1` (centres unmarked) [6 (gem-difluoro compound), 2-[5-(4-Chlorophenoxy)-1,1-difluoropentyl]-2-oxiranecarboxylic acid methyl ester]: the inhibition at 10 µM in assay [1] came out at 44%; in assay [2] it was 7%. The inhibition at 50 µM at human platelet PLA2 (30 min) worked out at 91.1%. In addition, at human platelet PLA2 (setting [8]), the pIC50 was 5.08.

For the compound `COC(=O)C1(C(F)(F)CCCCCOc2ccc(Cl)cc2)CO1` (centres unmarked) [7 (gem-difluoro compound), 2-[6-(4-Chlorophenoxy)-1,1-difluorohexyl]-2-oxiranecarboxylic acid methyl ester], the inhibition at 10 µM in assay [1] stood at 43%; in assay [2] it was 58%. This compound gave an inhibition at 50 µM on human platelet PLA2 (30 min) of 82%. Moreover, the pIC50 at human platelet PLA2 (setting [8]) is 4.95.

`CCCCC/C=C\C/C=C\C/C=C\C/C=C\CCCC(=O)O` [Arachidonic Acid, reference compound] showed a pIC50 at human platelet PLA2 of 5.00.

Regarding `NC1=NN(c2cccc(C(F)(F)F)c2)CC1` [BW 755c], in assay [3] (200 mg/kg p.o.), the “% Inhibition (PLA2-induced vascular permeability)” value is 65.3%.

As for `CN(C)CCC(c1ccc(Cl)cc1)c1ccccn1` (centres unmarked) [Chlorpheniramine], in assay [3] (2 mg/kg p.o.), the “% Inhibition (PLA2-induced vascular permeability)” value is 45.0%.

In the case of `C[C@@H]1C[C@H]2[C@@H]3CCC4=CC(=O)C=C[C@]4(C)[C@@]3(F)[C@@H](O)C[C@]2(C)[C@@]1(O)C(=O)CO` [Dexamethasone], in assay [3] (10 mg/kg p.o.), the “% Inhibition (PLA2-induced vascular permeability)” value was found to be 49.0%.

On to `COC(=O)C1(C(=O)CCCCCOc2ccc(Cl)cc2)CO1` (centres unmarked) [Example 7A, 2-[6-(4-Chlorophenoxy)-1-oxohexyl]-2-oxiranecarboxylic acid methyl ester], for which the inhibition at 10 µM amounted to 38% in assay [1] and 30% in assay [2]. Further, the “% Inhibition of paw edema” value in assay [4] worked out at 53%. Moreover, the “Mouse Ear Edema Assay, % Change from Control, TOPICAL, AA” value in assay [5] was -59%. Also, the inhibition at 50 µM on human platelet PLA2 (30 min) amounted to 88.4%. Besides, the pIC50 on human platelet PLA2 (setting [8]) was 5.15. Also, the “Mouse Ear Edema Assay, % Change from Control, TOPICAL, TPA” value in assay [6] is -70%.

For `COC(=O)C1(C(=O)CCCCc2ccccc2)CO1` (centres unmarked) [Example 9, 2-(5-Phenyl-1-oxopentyl)-2-oxiranecarboxylic acid methyl ester], the inhibition at 10 µM in assay [1] came out at 1%; in assay [2] it was 7%. For the same compound, the “% Inhibition of paw edema” value in assay [4] amounted to 27%. Moreover, testing at 50 µM on human platelet PLA2 (30 min) gave an inhibition of 81.8%. At human platelet PLA2 (setting [8]), the pIC50 was 5.49. Further, the “% Inhibition (oxazolone contact hypersensitivity)” value in assay [7] amounted to 22.0%.

For the compound `CCOC(=O)C1(CCCCCc2ccc(Cl)cc2)CO1` (centres unmarked) [Example 10, 2-[5-(4-Chlorophenyl)pentyl]-2-oxiranecarboxylic acid ethyl ester], the “% Inhibition, iv at 100 mg/kg (PLA2-induced vascular permeability)” value in assay [3] amounted to 24.1%. The inhibition at 10 µM in assay [1] was determined as 4%; in assay [2], 23%. Besides, the “% Inhibition of paw edema” value in assay [4] worked out at 42%. In assay [5], the “Mouse Ear Edema Assay, % Change from Control, TOPICAL, AA” value is given as -73%. This compound also returned an inhibition at 50 µM against human platelet PLA2 (30 min) of 97.2%. In addition, the pIC50 on human platelet PLA2 (setting [8]) is 5.80. Moreover, the “Mouse Ear Edema Assay, % Change from Control, TOPICAL, TPA” value in assay [6] is recorded as -45%.

For the compound `COc1ccc2c(c1)c(CC(=O)O)c(C)n2C(=O)c1ccc(Cl)cc1` [Indomethacin, reference compound], in assay [3] (50 mg/kg p.o.), the “% Inhibition (PLA2-induced vascular permeability)” value turned out to be 15.0%. Moreover, the ED50 (in general, the dose that gives a 50% effect, or the effect in half of the subjects) in assay [4] (Rattus norvegicus, po, read-out: Oral ED50 (95% C.L.)) was determined as 3.7 mg/kg.

Regarding `O=C(CBr)c1ccc(Br)cc1` [para-Bromophenacyl bromide, reference compound], the pIC50 against human platelet PLA2 was 4.63.
